The values below come from ChEMBL document CHEMBL5634130, “Exploring the structural-activity relationship of hexahydropyrazino[1,2-d]pyrido[3,2-b][1,4]oxazine derivatives as potent and orally-bioavailable PARP7 inhibitors” (Eur J Med Chem, 2023).

Activity calls are given as the source filed them. No cut-off for these calls is given here.

Series [1] deals with NCI-H1373. The series can be described thus: Antiproliferative activity against human NCI-H1373 cells assessed as inhibition of cell viability incubated for 4 days by luminescence based assay. The settings on record: NCI-H1373, 96 h.
Series [2] addresses T1, Protein mono-ADP-ribosyltransferase TIPARP (Homo sapiens, UniProt Q7Z3E1).
T1 sequence (Q7Z3E1 whole entry): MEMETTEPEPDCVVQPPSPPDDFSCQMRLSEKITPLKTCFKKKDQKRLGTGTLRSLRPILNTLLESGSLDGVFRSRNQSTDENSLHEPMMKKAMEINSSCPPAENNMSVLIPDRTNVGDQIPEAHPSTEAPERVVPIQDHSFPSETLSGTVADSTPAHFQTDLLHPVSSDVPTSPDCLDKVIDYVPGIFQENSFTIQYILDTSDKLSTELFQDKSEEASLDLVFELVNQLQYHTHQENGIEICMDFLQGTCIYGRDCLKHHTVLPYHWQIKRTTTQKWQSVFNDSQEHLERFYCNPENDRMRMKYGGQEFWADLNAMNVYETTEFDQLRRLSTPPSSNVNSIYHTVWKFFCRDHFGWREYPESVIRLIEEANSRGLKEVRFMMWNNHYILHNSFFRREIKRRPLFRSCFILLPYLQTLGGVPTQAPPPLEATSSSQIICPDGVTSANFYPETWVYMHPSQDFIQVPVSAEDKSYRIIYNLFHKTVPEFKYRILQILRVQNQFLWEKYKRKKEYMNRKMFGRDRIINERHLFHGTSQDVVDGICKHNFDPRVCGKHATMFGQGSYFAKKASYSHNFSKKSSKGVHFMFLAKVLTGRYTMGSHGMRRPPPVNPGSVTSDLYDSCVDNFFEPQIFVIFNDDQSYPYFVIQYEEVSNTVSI
The series can be described thus: Inhibition of PARP7 (unknown origin) using histone as substrate incubated for 1 hr by chemiluminescence assay.

For series [3], the system named is NCI-H1373. The series can be described thus: Antitumor activity against human NCI-H1373 cells xenografted in […] SCID mouse model assessed as tumor growth inhibition at 30 mg/kg, po administered everyday measured after 21 days relative to control. Format: functional. The settings on record: NCI-H1373, 504 h, time 21 day, read-out: TGI. Background: Xenograft models place foreign cells or tissue in a host animal.

Series [4] is described as follows: Oral bioavailability in fasted ICR mouse at 10 mg/kg measured for 24 hrs by LC-MS analysis. Format: ADME, organism-based. The settings on record: in vivo.
Another series deals with RAW264.7. Put plainly: Inhibition of PARP7 in mouse RAW264.7 cells assessed as increase in IFN-beta level incubated for 24 hrs by ELISA. Format: cell-based. (In general: ELISA stands for enzyme-linked immunosorbent assay.)
Series [5] in a line: Cmax in fasted ICR mouse at 10 mg/kg, po measured for 24 hrs by LC-MS analysis. It counts as ADME, organism-based. The settings on record: in vivo.
A short description of series [6]: Clearance in fasted ICR mouse at 2 mg/kg, iv measured for 24 hrs by LC-MS analysis. It counts as ADME, organism-based. The settings on record: in vivo.
The nature of series [7]: Toxicity in […] SCID mouse model xenografted with human NCI-H1373 cells assessed as body weight loss at 30 mg/kg, po measured for 21 days. It counts as organism-based. The settings on record: in vivo, 504 h, time 21 day.
Series [8] in a line: Half life in fasted ICR mouse at 2 mg/kg, iv measured for 24 hrs by LC-MS analysis. It counts as ADME, organism-based. The settings on record: in vivo.
Series [9] in a line: Volume of distribution at steady state in fasted ICR mouse at 2 mg/kg, iv measured for 24 hrs by LC-MS analysis. Format: ADME, organism-based. To be noted: in vivo, read-out: Vdss.
Series [10] in a line: Tmax in fasted ICR mouse at 10 mg/kg, po measured for 24 hrs by LC-MS analysis. To be noted: in vivo. It counts as ADME, organism-based.
The test system of another series is MDA-MB-436. Put plainly: Antiproliferative activity against human MDA-MB-436 cells assessed as inhibition of cell viability at 0.1 uM incubated for 7 days by luminescence based assay. Format: functional. The settings on record: time 7.0 day.
A short description of series [11]: Toxicity in […] SCID mouse model xenografted with human NCI-H1373 cells assessed as animal death at 30 mg/kg, po measured for 21 days. Format: organism-based. The settings on record: in vivo, 504 h, time 21 day.
A short description of series [12]: AUC in fasted ICR mouse at 2 mg/kg, iv measured for 24 hrs by LC-MS analysis. The settings on record: in vivo. It counts as ADME, organism-based.
Series [13] can be described thus: AUC in fasted ICR mouse at 10 mg/kg, po measured for 24 hrs by LC-MS analysis. It counts as ADME, organism-based. The settings on record: in vivo.
Series [14] is described as follows: Half life in fasted ICR mouse at 10 mg/kg, po measured for 24 hrs by LC-MS analysis. Format: ADME, organism-based. The settings on record: in vivo.

The IC50 is the concentration that inhibits the measured activity by half. Take `O=C(CCOC[C@@H]1CCCN1c1cn[nH]c(=O)c1C(F)(F)F)N1CCN2c3ncc(C(F)(F)F)cc3OC[C@@H]2C1`: the results for the IC50 (with NCI-H1373 [1]; in series [2]) were 310 nM and 13.8 nM, respectively.

As for `C[C@@H](CN1CC(C(=O)N2CCN3c4ncc(C(F)(F)F)cc4OC[C@@H]3C2)C1)Nc1cn[nH]c(=O)c1C(F)(F)F`, the IC50 in the series on NCI-H1373 [1] is above 3000 nM.

On to `O=C(CCOC1CC(Nc2cn[nH]c(=O)c2C(F)(F)F)C1)N1CCN2c3ncc(C(F)(F)F)cc3OC[C@@H]2C1` (some centres undefined), for which the results for the IC50 (in the series with NCI-H1373 [1]; in series [2]) were 398 nM and 63 nM, respectively.

The term bioavailability denotes the share of a dose that reaches the circulation, judged against a reference dose that is usually intravenous. As a reminder, the Cmax is the highest concentration seen after dosing. What is called clearance is the volume of plasma or blood freed of the substance per unit of time. Read a low clearance as a low capacity for elimination. As a reminder, the half-life is the time in which the quantity being followed falls by half. Low values mean fast loss, high ones slow loss. For orientation: Tmax means the time from dosing to the highest level. As usually defined, the AUC is the area under the concentration-time curve, a measure of exposure. Low values mean low exposure, high ones high exposure. As for `C[C@@H](COCCC(=O)N1CCN2c3ncc(C(F)(F)F)cc3OC[C@@H]2C1)Oc1cn[nH]c(=O)c1C(F)(F)F`, the inhibition in vivo at 30 mg/kg in the series on NCI-H1373 [3] is 62.4%. Also, the bioavailability in series [4] is 53.9%. Also, the IC50 was determined as 15 nM with NCI-H1373 [1] and 1.75 nM in series [2]. Moreover, the inhibition result with RAW264.7 is “Active”. In series [5], this compound yielded a Cmax of 1840 ng/mL. This compound showed a clearance in series [6] of 50.6 mL/min/kg. Also, the Activity result in [7] and in series [11] was “Non-Toxic” in each case. In series [8], this compound had a half-life of 102 min. For the same compound, the Vd in series [9] was 0.668 L/kg. Also, the Tmax in series [10] worked out at 15 min. For the same compound, the outcome in the series on MDA-MB-436 was inactive. Besides, the AUC at 24 h in series [12] turned out to be 682 ng·h/mL. The compound further returned an AUC in series [13] of 1835 ng·h/mL. Besides, the t1/2 in series [14] is 264 min.

`C[C@@H](COCCC(=O)N1CCN2c3ncc(C(F)(F)F)cc3OC[C@H]2C1)Nc1cn[nH]c(=O)c1C(F)(F)F`: the IC50 with NCI-H1373 [1] came to 85 nM; in series [2], 3.3 nM.

On to `O=C(CCOC[C@@H]1CCN1c1cn[nH]c(=O)c1C(F)(F)F)N1CCN2c3ncc(Cl)cc3OC[C@@H]2C1`, for which the bioavailability in series [4] stood at 25.8%. Moreover, the IC50 came to 14.8 nM in the series on NCI-H1373 [1] and 0.66 nM in [2]. In the series on RAW264.7, the inhibition result is “Active”. In addition, the Cmax in series [5] was 400 ng/mL. The compound also came in with a clearance in series [6] of 49.4 mL/min/kg. In series [8], the half-life was 36 min. Moreover, the Vd in [9] was 0.638 L/kg. Besides, in [10], the Tmax worked out at 15 min. Also, the outcome in the series on MDA-MB-436 was inactive. Moreover, the AUC at 24 h in series [12] was 421 ng·h/mL. In series [13], this compound registered an AUC of 544 ng·h/mL. The t1/2 in series [14] is 126 min.

Take `CC(COCCC(=O)N1CCN2c3ncc(C(F)(F)F)cc3OC[C@H]2C1)Nc1cn[nH]c(=O)c1C(F)(F)F` (mixture of isomers): the IC50 with NCI-H1373 [1] was determined as 180 nM; in series [2], 12.8 nM.

Regarding `CC(COCCC(=O)N1CCN2c3ncc(C(F)(F)F)cc3OC[C@@H]2C1)Nc1cn[nH]c(=O)c1C(F)(F)F` (mixture of isomers), the results for the IC50 (in the series on NCI-H1373 [1]; in [2]) were 156 nM and 9.4 nM, respectively.

`C[C@@H](COCCC(=O)N1CCN2c3ncc(C#N)cc3OCC2C1)Nc1cn[nH]c(=O)c1C(F)(F)F` (some centres undefined): in the series on NCI-H1373 [1], the IC50 amounted to 255 nM.

With `C[C@@H](COCCC(=O)N1CCN2c3ncc(C(F)(F)F)cc3OC[C@@H]2C1)Nc1cn[nH]c(=O)c1C(F)(F)F`, the bioavailability in [4] came out at 22.3%. Moreover, the IC50 turned out to be 77 nM in the series with NCI-H1373 [1] and 1.86 nM in [2]. In series [5], the concentration peaked (Cmax) at 408 ng/mL. Also, the clearance in [6] came out at 61 mL/min/kg. For the same compound, the half-life in [8] was 30 min. The Vd in series [9] was found to be 0.104 L/kg. Also, the Tmax in series [10] amounted to 15 min. In addition, the AUC at 24 h in [12] was 274 ng·h/mL. The compound further had an AUC in series [13] of 306 ng·h/mL. The same compound returned a t1/2 in series [14] of 120 min.

Consider `CC(COC[C@H](C)Nc1cn[nH]c(=O)c1C(F)(F)F)C(=O)N1CCN2c3ncc(C(F)(F)F)cc3OC[C@@H]2C1` (some centres undefined), for which the IC50 with NCI-H1373 [1] amounted to 973 nM.

For the compound `C[C@@H](COc1cnc(N2CCN3c4ncc(C(F)(F)F)cc4OC[C@@H]3C2)nc1)Nc1cn[nH]c(=O)c1C(F)(F)F`, the IC50 with NCI-H1373 [1] is 1950 nM.

Turning to `C[C@@H](COCCC(=O)N1CCN2c3ncc(C(F)(F)F)cc3OCC2C1)Nc1cn[nH]c(=O)c1C(F)(F)F` (mixture of isomers), the figures for the IC50 (in the series with NCI-H1373 [1]; in series [2]) were 88 nM and 2.1 nM, respectively.

Turning to `CC(COCCC(=O)N1CCN2c3ncc(C(F)(F)F)cc3OCC2C1)Nc1cn[nH]c(=O)c1C(F)(F)F` (racemic), the IC50 with NCI-H1373 [1] is 175 nM; in [2], 10.3 nM.

Turning to `C[C@@H](COCCC(=O)N1CCN2c3ncc(Cl)cc3OCC2C1)Nc1cn[nH]c(=O)c1C(F)(F)F` (some centres undefined), the IC50 in the series on NCI-H1373 [1] is 106 nM.

With `O=C(CCOCC1CCN1c1cn[nH]c(=O)c1C(F)(F)F)N1CCN2c3ncc(C(F)(F)F)cc3OC[C@@H]2C1` (some centres undefined), the IC50 in the series with NCI-H1373 [1] stood at 6 nM; in series [2] it was 0.71 nM.

Consider `C[C@@H](COCCC(=O)N1CCN2c3ncc(F)cc3OCC2C1)Nc1cn[nH]c(=O)c1C(F)(F)F` (some centres undefined), for which, in the series with NCI-H1373 [1], the IC50 is 694 nM.

Regarding `Cc1cnc2c(c1)OCC1CN(C(=O)CCOC[C@H](C)Nc3cn[nH]c(=O)c3C(F)(F)F)CCN21` (some centres undefined), the IC50 in the series with NCI-H1373 [1] came out at 954 nM.

`C[C@@H](CN1CCC(C(=O)N2CCN3c4ncc(C(F)(F)F)cc4OC[C@@H]3C2)C1)Nc1cn[nH]c(=O)c1C(F)(F)F` (some centres undefined): the IC50 in the series on NCI-H1373 [1] was found to be 908 nM.
